# Assay results published in the supplement of paper PMC11451515.
# System: SEM cells
# Assay: cell viability relative to DMSO control; higher = less cytotoxic
# Settings: 48 h
# Outline: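 Cells were incubated for 48 h at 37°C before CellTiter-Glo One luminescence was read. The cells were NOMO1 or SEM (500 cells/well) or P12-Ichikawa (1000 cells/well) leukemia cells, adapted for at least four passages in each medium and seeded in 1536-well plates (5 μl). Dosing used library compounds in DMSO applied by pin over 11 threefold points, 47 μM to 0.79 nM. Viability is the per-plate percentage of DMSO wells, with cell-free wells as background.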
# [1] = HPLM + 10% dialyzed FBS, 0.000781 µM
# [2] = HPLM + 10% dialyzed FBS, 0.00234 µM
# [3] = HPLM + 10% dialyzed FBS, 0.00702 µM
# [4] = HPLM + 10% dialyzed FBS, 0.0211 µM
# [5] = HPLM + 10% dialyzed FBS, 0.0632 µM
# [6] = HPLM + 10% dialyzed FBS, 0.19 µM
# [7] = HPLM + 10% dialyzed FBS, 0.569 µM
# [8] = HPLM + 10% dialyzed FBS, 1.71 µM
# [9] = HPLM + 10% dialyzed FBS, 5.12 µM
# [10] = HPLM + 10% dialyzed FBS, 15.4 µM
# [11] = HPLM + 10% dialyzed FBS, 46.1 µM
# [12] = RPMI 5 mM glucose + 10% FBS, 0.000781 µM
# [13] = RPMI 5 mM glucose + 10% FBS, 0.00234 µM
# [14] = RPMI 5 mM glucose + 10% FBS, 0.00702 µM
# [15] = RPMI 5 mM glucose + 10% FBS, 0.0211 µM
# [16] = RPMI 5 mM glucose + 10% FBS, 0.0632 µM
# [17] = RPMI 5 mM glucose + 10% FBS, 0.19 µM
# [18] = RPMI 5 mM glucose + 10% FBS, 0.569 µM
# [19] = RPMI 5 mM glucose + 10% FBS, 1.71 µM
# [20] = RPMI 5 mM glucose + 10% FBS, 5.12 µM
# [21] = RPMI 5 mM glucose + 10% FBS, 15.4 µM
# [22] = RPMI 5 mM glucose + 10% FBS, 46.1 µM
# [23] = RPMI 5 mM glucose + 10% dialyzed FBS, 0.000781 µM
# [24] = RPMI 5 mM glucose + 10% dialyzed FBS, 0.00234 µM
# [25] = RPMI 5 mM glucose + 10% dialyzed FBS, 0.00702 µM
# [26] = RPMI 5 mM glucose + 10% dialyzed FBS, 0.0211 µM
# [27] = RPMI 5 mM glucose + 10% dialyzed FBS, 0.0632 µM
# [28] = RPMI 5 mM glucose + 10% dialyzed FBS, 0.19 µM
# [29] = RPMI 5 mM glucose + 10% dialyzed FBS, 0.569 µM
# [30] = RPMI 5 mM glucose + 10% dialyzed FBS, 1.71 µM
# [31] = RPMI 5 mM glucose + 10% dialyzed FBS, 5.12 µM
# [32] = RPMI 5 mM glucose + 10% dialyzed FBS, 15.4 µM
# [33] = RPMI 5 mM glucose + 10% dialyzed FBS, 46.1 µM
Structure (SMILES),cell viability [1] [%],cell viability [2] [%],cell viability [3] [%],cell viability [4] [%],cell viability [5] [%],cell viability [6] [%],cell viability [7] [%],cell viability [8] [%],cell viability [9] [%],cell viability [10] [%],cell viability [11] [%],cell viability [12] [%],cell viability [13] [%],cell viability [14] [%],cell viability [15] [%],cell viability [16] [%],cell viability [17] [%],cell viability [18] [%],cell viability [19] [%],cell viability [20] [%],cell viability [21] [%],cell viability [22] [%],cell viability [23] [%],cell viability [24] [%],cell viability [25] [%],cell viability [26] [%],cell viability [27] [%],cell viability [28] [%],cell viability [29] [%],cell viability [30] [%],cell viability [31] [%],cell viability [32] [%],cell viability [33] [%]
CN(C)C/C=C/C(=O)Nc1ccc(C(=O)Nc2cccc(Nc3ncc(Cl)c(-c4c[nH]c5ccccc45)n3)c2)cc1,75.1,79.4,90,62.5,85.8,47.6,4.17,3.85,3.85,3.77,3.63,97.5,122,128,129,120,68,5.08,6.09,5.71,6.09,6.13,83.4,76.3,103,73.3,78.8,43.6,4.95,4.94,4.59,4.42,4.34
N[S+](=O)([O-])c1ccc(Nc2nc(OCC3CCCCC3)c3[nH]cnc3n2)cc1,103,117,106,113,101,115,43,24,23.8,16.4,3.57,,,,,,,,,,,,109,134,114,120,112,109,49.6,21,21.2,14.4,2.04
CC(C(C)N1CC(=O)NC(=O)C1)N1CC(=O)NC(=O)C1 (stereo not drawn),97.2,136,116,125,116,128,123,106,95.2,58.4,40.5,73.4,79.9,101,102,92,104,80.8,60.1,49,31,19.7,86,93.3,120,134,122,115,128,91.3,65.7,39.1,35.1
Cc1ccc(Nc2cc(-c3cccc(N4C(=O)c5ccccc5C4=O)c3)ncn2)cc1N[S+](C)(=O)[O-],102,97.9,131,117,126,123,117,137,123,123,76.2,123,95.8,137,138,128,132,142,166,133,132,105,122,117,119,119,135,115,127,154,136,142,77.7
C[C@H](CCC(=O)O)[C@H]1CC[C@H]2[C@@H]3[C@H](O)C[C@@H]4C[C@H](O)CC[C@]4(C)[C@H]3CC[C@]12C,79.7,80.7,96.3,80.3,99.9,84,95,92.5,93.5,84.1,75.5,75.4,81.9,90.3,96.9,87.6,76.5,91,80.2,99.1,81.9,67,87.5,93.7,105,95,85.5,79.4,91.4,92.2,95.3,95.1,79.7
C[C@]1(O)CC(C1)C2=NC(=C3[N]2C=CN=C3N)C4=CC5=C(C=C4)C=CC(=N5)C6=CC=CC=C6 (stereo not drawn),77.3,81.7,87.6,90.4,87.1,67.6,76,47.2,26.5,3.17,2.38,95.8,96.8,105,103,105,66.4,68.8,42.2,16.6,3.06,1.58,77.7,67.5,80.7,84,87.2,55.8,72.5,42.7,24.3,3.02,1.93
CC/C=C\C[C@H]1C(=O)CC[C@@H]1CC(=O)OC,76,118,130,130,125,118,125,118,113,114,103,60.3,109,101,114,109,100,126,102,99.3,109,88.9,78,112,137,147,153,127,135,120,122,112,120
C=CC(=O)Nc1cc2c(Nc3ccc(F)c(Cl)c3)ncnc2cc1C#CC(C)(C)N1CCN(C)CC1,99.3,107,108,114,106,104,92.3,87.1,17.3,4.78,2.96,112,116,112,118,105,138,103,87.7,22.2,4.92,4.19,102,104,95.8,97,102,106,107,87.7,19.3,4.98,3.49
CN(C)CCCC1(c2ccc(F)cc2)OCc2cc(C#N)ccc21 (stereo not drawn),94.8,101,103,106,100,94.5,91.7,96.7,83.6,86.9,73.6,91.5,99.4,89.4,99.1,86.5,96.6,82.4,93.1,74.2,90.2,78.1,109,109,106,108,113,120,84.1,105,70.7,92.2,76
CCCOc1ccc(C(=O)OCCN(CC)CC)cc1N,85.3,105,29.3,105,104,118,122,104,108,114,97.7,94.6,110,10.1,118,115,107,114,116,105,120,96.3,80,88,23.2,104,99.3,104,95.8,98.1,106,102,85.3
Cc1ccc2nc(NCCN)c3ncc(C)n3c2c1,104,112,111,106,122,113,106,101,102,23.2,5.23,111,108,129,110,122,119,123,102,108,86.4,5.06,94.9,110,94.9,94.5,101,106,111,77.7,91,67.4,4.44
Nc1nc(F)nc2c1ncn2[C@@H]1O[C@H](COP(=O)(O)O)[C@@H](O)[C@@H]1O,107,123,117,113,128,117,123,56.3,35.7,16.6,8.32,107,130,116,92.1,114,123,128,73.1,93.7,19.7,11.1,103,126,110,98.2,134,114,105,52.9,46.3,18,9.23
C/C1=C2/[N]3[Co+]456([OH])<-[N]7=C1[C@@H](CCC(N)=O)C(C)(C)/C7=C/C1=[N]->4C(=C(/C)C4=[N]->5[C@@](C)([C@H]3[C@H](CC(N)=O)[C@@]2(C)CCC(=O)NC[C@@H](C)OP(=O)([O-])O[C@H]2[C@@H](O)[C@@H](n3c[n]->6c5cc(C)c(C)cc53)O[C@@H]2CO)[C@@](C)(CC(N)=O)[C@@H]4CCC(N)=O)/[C@@](C)(CC(N)=O)[C@@H]1CCC(N)=O,93.9,90.7,94.6,98.2,98.3,94.2,94.6,92.8,94.5,73.8,60.1,112,116,104,82.5,113,95.9,99.3,97.3,77.1,91.6,79.9,96.4,96.6,109,100,110,95.6,101,101,103,80.4,71
CNc1nc(-c2ccc3c(N)n[nH]c3c2)cc(N2C[C@@H](C(=O)NC3CCCCC3)CC[C@H]2C)n1,72.6,90,83.9,81.1,83.1,84.7,59.8,57.3,60.3,48.5,14.3,89.8,85.9,102,108,88.8,113,82.1,78.8,71.5,47.9,2.66,80.6,90.7,76.8,76.1,79.4,83.1,71.2,57.9,63.1,50.7,10.9
Oc1cc(-c2nc(-c3ccccc3)[nH]c2-c2ccncc2)ccc1Cl,105,115,118,110,104,122,103,104,107,100,80.3,120,114,115,117,107,111,122,116,106,111,45.2,,,,,,,,,,,
